# Data from patent US20060079479A1, “Methods of inducing vasodilation” (priority 2004, published 2006).
# Tests used:
# human subjects = assay: Forearm blood flow (FBF) after infusion into forearm arteries of human subjects; format: in vivo; details: for forearm blood flow (FBF) before infusion (baseline): baseline value before forearm artery infusion; for forearm blood flow (vasodilation) at calculated equimolar concentrations: forearm artery infusion, calculated equimolar 1 μmol/min
# Protocol: Blood pressure, heart rate, and respiration were continuously monitored throughout the administration. A physician was present throughout the study and monitored for side effects. At the end of each infusion period, the forearm blood flow (FBF) of each subject was then measured by standard techniques.
# A physician was present, and the subject was monitored throughout the infusion, as in Example 1.
# [1] = in pharmaceutically acceptable carriers; cited from earlier work
# [2] = uptake by nucleoside transporter in red blood cells; cited from earlier work
# [3] = forearm artery infusion 0.125 mg/min for 15 minutes
Compound,"vasodilation compared with adenosine at calculated equimolar concentrations (human subjects; 1 μmol/min, p<0.02)",forearm blood flow (FBF) before infusion (baseline) (human subjects),forearm blood flow (FBF) at end of infusion (human subjects; [3]),forearm blood flow (FBF) at end of infusion (human subjects; forearm artery infusion 0.5 mg/min for 15 minutes),forearm blood flow (vasodilation) at calculated equimolar concentrations (human subjects),limit of solubility [1],half-life in blood [2]
"Nc1ncnc2c1ncn2[C@@H]1O[C@H](COP(=O)(O)O)[C@@H](O)[C@H]1O [AMP, Adenosine 5′-monophosphate]",significantly greater vasodilation,3.8±0.5 ml/100 ml/min,16.3±1.6 ml/100 ml/min,20.7±1.8 ml/100 ml/min,19.4±1.8 ml/100 ml/min,approximately 400 mg/ml,
"Nc1ncnc2c1ncn2[C@@H]1O[C@H](CO)[C@@H](O)[C@H]1O [adenosine, reference compound]",,3.1±0.2 ml/100 ml/min,14.2±2.0 ml/100 ml/min,,15.6±1.9 ml/100 ml/min,approximately 5 mg/ml,less than 1 second
